Measured values taken from DBAASP.
Converted amounts (≈) assume the structure as drawn. “And” between values parts separate entries of the source, which are not always exact repeats. Equal entries are not always repeated. One block for each compound: values may come before it.

Experiments:
Experiment in all cases: ≥ marks a high value that may be exact or a test limit, other limits are often not marked, values filed in µg/mL are converted to µM
[1] = system: Staphylococcus aureus SH1000
[2] = system: Staphylococcus aureus NCTC 12493
[3] = system: Staphylococcus aureus NCTC 10788
[4] = system: Enterococcus faecalis NCTC 12697
[5] = system: Klebsiella pneumoniae ATCC 43816
[6] = system: Candida albicans NCYC 1467
[7] = system: Escherichia coli NCTC 10418
[8] = system: Pseudomonas aeruginosa ATCC 27853
[9] = system: Corynebacterium glutamicum ATCC 13032
[10] = system: Escherichia coli ATCC 25922
[11] = system: Staphylococcus aureus ATCC 9144
[12] = system: Candida albicans ATCC 10231
Aureobasidium pullulans = system: Aureobasidium pullulans
[13] = system: Pseudomonas aeruginosa PAO1
[14] = system: Pseudomonas aeruginosa PA7
Escherichia coli MG1655 = system: Escherichia coli MG1655
[15] = system: Staphylococcus aureus NCTC 8325
[16] = system: Staphylococcus aureus 1399/17
[17] = system: Pseudomonas aeruginosa 522/17
[18] = system: Klebsiella pneumoniae ESBL 344/17
[19] = system: Staphylococcus aureus ATCC 33591
[20] = system: Staphylococcus aureus SG511
[21] = system: Acinetobacter baumannii 7226/16
Escherichia coli K-12 = system: Escherichia coli K-12
[22] = system: Pseudomonas aeruginosa PA287
[23] = system: Pseudomonas aeruginosa PA214

MIC [1]: ≥ 100 µM
Structure (SMILES): CC[C@H](C)[C@H](NC(=O)[C@H](CCCCN)NC(=O)[C@H](CC(C)C)NC(=O)[C@H](CC(C)C)NC(=O)[C@@H](N)CCCCN)C(=O)N[C@H](C(=O)N[C@@H](CCCCN)C(=O)N[C@@H](CCCCN)C(=O)N[C@H](C(=O)N[C@H](C(=O)NCC(=O)N[C@@H](C)C(=O)N[C@@H](CC(C)C)C(=O)NCC(N)=O)C(C)C)C(C)C)C(C)C [KLLKIVKKVVGALG]

MIC [13]: 4 µM (≈ 12.4 µg/mL)
MIC [14]: 4 µM (≈ 12.4 µg/mL)
MIC (Escherichia coli MG1655): 1 µM (≈ 3.1 µg/mL)
MIC [15]: ≥ 128 µM
Structure (SMILES): CC[C@H](C)[C@H](NC(=O)[C@H](CCC(=O)O)NC(=O)[C@H](CCCCN)NC(=O)[C@H](C)NC(=O)[C@@H](NC(=O)[C@H](CCCCN)NC(=O)[C@H](CCCCN)NC(=O)[C@H](CC(C)C)NC(=O)[C@@H](NC(=O)[C@H](CC(=O)O)NC(=O)[C@H](CCCN=C(N)N)NC(=O)[C@@H](NC(=O)[C@H](Cc1ccccc1)NC(=O)CNC(=O)[C@@H]1CCCN1C(=O)[C@@H](NC(=O)[C@H](CCCCN)NC(=O)[C@@H](N)CC(C)C)[C@@H](C)CC)C(C)C)[C@@H](C)O)C(C)C)C(=O)N[C@@H](Cc1ccccc1)C(=O)N[C@@H](CO)C(=O)N[C@@H](C)C(=O)N[C@H](C(=O)N[C@H](C(=O)NCC(=O)N[C@@H](C)C(=O)N[C@H](C(=O)N[C@H](C(=O)N[C@@H](CCC(N)=O)C(=O)N[C@@H](CO)C(=O)O)[C@@H](C)O)C(C)C)[C@@H](C)O)C(C)C [LKIPGFVRDTLKKVAKEIFSAVTGAVTQS]

MIC [16]: 4 µM and 6.2 µM
MIC [17]: 16 µM (≈ 37.1 µg/mL)
MIC [18]: 8 µM and 6.2 µM
MIC [19]: 8 µM (≈ 18.6 µg/mL)
MIC [20]: 0.5 µM (≈ 1.16 µg/mL)
MIC [21]: 8 µM and 12.5 µM
Structure (SMILES): CC[C@H](C)[C@H](NC(=O)[C@H](CCCN=C(N)N)NC(=O)[C@@H](NC(=O)[C@@H]1CCCN1C(=O)[C@@H]1CCCN1C(=O)[C@H](CCCN=C(N)N)NC(=O)[C@H](CCCN=C(N)N)NC(=O)[C@H](Cc1ccccc1)NC(=O)[C@@H]1CCCN1C(=O)[C@H](CC(C)C)NC(=O)[C@H](CCCN=C(N)N)NC(=O)[C@H](Cc1ccccc1)NC(=O)[C@H](CCCN=C(N)N)NC(=O)[C@H](CCCN=C(N)N)NC(=O)[C@H](Cc1ccccc1)NC(=O)[C@@H](N)CCCN=C(N)N)[C@@H](C)CC)C(=O)N[C@@H](Cc1cnc[nH]1)C(N)=O [RFRRFRLPFRRPPIRIH]

MIC (Escherichia coli K-12): 6.3 µM (≈ 11.6 µg/mL)
MIC [13]: 25 µM (≈ 45.9 µg/mL)
MIC [22]: ≥ 50 µM
MIC [23]: 25 µM (≈ 45.9 µg/mL)
Structure (SMILES): C[C@H](NC(=O)[C@H](C)NC(=O)[C@H](Cc1ccccc1)NC(=O)[C@H](C)NC(=O)[C@H](C)NC(=O)[C@H](Cc1c[nH]c2ccccc12)NC(=O)[C@H](C)NC(=O)[C@H](CCCCN)NC(=O)[C@H](C)NC(=O)[C@H](Cc1ccccc1)NC(=O)[C@H](C)NC(=O)[C@H](C)NC(=O)[C@H](CCCCN)NC(=O)[C@H](CCCCN)NC(=O)[C@H](CCCCN)NC(=O)[C@H](CCCCN)NC(=O)[C@@H](N)CCCCN)C(N)=O [KKKKKAAFAKAWAAFAA]

The remaining lines, values behind:

Structure (SMILES): CC(C)C[C@H](NC(=O)[C@H](CCC(N)=O)NC(=O)[C@H](CCC(N)=O)NC(=O)[C@H](C)NC(=O)CNC(=O)[C@H](C)NC(=O)[C@H](CCCCN)NC(=O)CNC(=O)[C@@H](NC(=O)[C@H](CCC(N)=O)NC(=O)[C@H](CCCCN)NC(=O)[C@H](CCCCN)NC(=O)[C@H](CC(C)C)NC(=O)[C@H](Cc1ccc(O)cc1)NC(=O)[C@H](CCCCN)NC(=O)[C@H](C)NC(=O)CNC(=O)[C@H](C)NC(=O)[C@H](CCCCN)NC(=O)[C@H](Cc1ccccc1)NC(=O)[C@H](CC(C)C)NC(=O)[C@H](CO)NC(=O)[C@H](CO)NC(=O)[C@H](Cc1ccccc1)NC(=O)CN)C(C)C)C(N)=O [GFSSLFKAGAKYLKKQVGKAGAQQL]
MIC [2]: ≥ 64 µM
MIC [3]: 16 µM (≈ 42 µg/mL)
MIC [4]: 16 µM (≈ 42 µg/mL)
MIC [5]: ≥ 128 µM
MIC [6]: ≥ 64 µM
MIC [7]: 8 µM (≈ 21 µg/mL)
MIC [8]: 16 µM (≈ 42 µg/mL)

Structure (SMILES): CC(C)[C@H](NC(=O)[C@H](CCCCN)NC(=O)[C@H](C)NC(=O)[C@@H](NC(=O)[C@@H](NC(=O)[C@H](CCCN=C(N)N)NC(=O)[C@H](C)NC(=O)[C@H](Cc1c[nH]c2ccccc12)NC(=O)[C@H](Cc1c[nH]c2ccccc12)NC(=O)CN)[C@@H](C)O)C(C)C)C(=O)N[C@@H](CCCN=C(N)N)C(=O)N[C@@H](CCCCN)C(N)=O [GWWARTVAKVRK]
MIC [9]: 1.6 µM (≈ 2.33 µg/mL)
MIC [10]: 6.3 µM (≈ 9.18 µg/mL)
MIC [11]: ≥ 50 µM
MIC [12]: 25 µM (≈ 36.4 µg/mL)
MIC [8]: 12.5 µM (≈ 18.2 µg/mL)
MIC (Aureobasidium pullulans): ≥ 50 µM

Structure (SMILES): CC[C@H](C)[C@@H]1NC(=O)[C@H](C)NC(=O)[C@@H](NC(=O)[C@H](Cc2ccccc2)NC(=O)[C@@H](NC(=O)[C@H](CCCCN)NC(=O)[C@@H]2CCCN2C(=O)[C@H](CC(C)C)NC(=O)[C@H](Cc2ccccc2)NC(=O)[C@H](CCCCN)NC(=O)[C@H](C)NC(=O)[C@H](C)NC(=O)[C@H](CC(C)C)NC(=O)CNC(=O)[C@H](C)NC(=O)[C@@H](NC(=O)[C@H](CC(C)C)NC(=O)[C@@H]2CCCN2C(=O)[C@H](CC(C)C)NC(=O)[C@@H](N)Cc2ccccc2)[C@@H](C)CC)[C@@H](C)CC)CSSC[C@@H](C(=O)O)NC(=O)[C@H](CCCCN)NC(=O)[C@H](CCCCN)NC(=O)[C@H]([C@@H](C)O)NC1=O [FLPLIAGLAAKFLPKIFCAITKKC]
MIC [2]: 16 µM (≈ 41.7 µg/mL)
MIC [3]: 4 µM (≈ 10.4 µg/mL)
MIC [4]: 8 µM (≈ 20.8 µg/mL)
MIC [5]: 16 µM (≈ 41.7 µg/mL)
MIC [6]: 4 µM (≈ 10.4 µg/mL)
MIC [7]: 8 µM (≈ 20.8 µg/mL)
MIC [8]: 32 µM (≈ 83.4 µg/mL)

Structure (SMILES): CC[C@H](C)[C@H](N)C(=O)N[C@@H](CCCCN)C(=O)N[C@H](C(=O)N1CCC[C@H]1C(=O)N1CCC[C@H]1C(=O)N[C@H](C(=O)N[C@H](C(=O)N[C@@H](CCCCN)C(=O)N[C@@H](CC(=O)O)C(=O)N[C@H](C(=O)N[C@@H](CC(C)C)C(=O)N[C@@H](CCCCN)C(=O)N[C@@H](CCCCN)C(=O)N[C@H](C(=O)N[C@@H](C)C(=O)N[C@@H](CCCCN)C(=O)NCC(=O)N[C@H](C(=O)N[C@@H](CC(C)C)C(=O)N[C@@H](CO)C(=O)N[C@H](C(=O)N[C@H](C(=O)N[C@@H](C)C(=O)N[C@@H](CC(=O)O)C(=O)N[C@@H](C)C(=O)N[C@@H](CC(C)C)C(=O)N[C@@H](CO)C(=O)N[C@@H](CCCCN)C(=O)N[C@@H](CO)C(=O)O)C(C)C)[C@@H](C)O)C(C)C)C(C)C)[C@@H](C)O)C(C)C)[C@@H](C)CC)[C@@H](C)CC [IKIPPIVKDTLKKVAKGVLSTVADALSKS]
MIC [13]: 5.66 µM (≈ 17.1 µg/mL)
MIC [14]: 8 µM (≈ 24.2 µg/mL)
MIC (Escherichia coli MG1655): 1 µM (≈ 3.02 µg/mL)
MIC [15]: ≥ 362 µM

Structure (SMILES): C[C@H](NC(=O)[C@H](C)NC(=O)[C@H](Cc1ccccc1)NC(=O)[C@H](C)NC(=O)[C@H](CCCCN)NC(=O)[C@H](C)NC(=O)[C@H](Cc1c[nH]c2ccccc12)NC(=O)[C@H](C)NC(=O)[C@H](CCCCN)NC(=O)[C@H](C)NC(=O)[C@H](Cc1ccccc1)NC(=O)[C@H](C)NC(=O)[C@H](C)NC(=O)[C@H](CCCCN)NC(=O)[C@H](CCCCN)NC(=O)[C@H](CCCCN)NC(=O)[C@@H](N)CCCCN)C(N)=O [KKKKAAFAKAWAKAFAA]
MIC (Escherichia coli K-12): 12.5 µM (≈ 22.9 µg/mL)
MIC [13]: 50 µM (≈ 91.8 µg/mL)
MIC [22]: ≥ 50 µM
MIC [23]: ≥ 50 µM
